These results are taken from patent US20130059888A1.

Counter-ions that a name gives are not always drawn. Like-named read-outs stand apart in the source and are kept apart here.

The test system of series [1] is Alzheimer-type dementia patients. The conditions noted are these: cited from earlier work; for Improving effect on the behavioral and psychological symptoms such as agitation: solely administered, Am. J. Geriatr. Psychiatry 2005.
Series [2] deals with Alzheimer-type dementia. Particulars: donepezil hydrochloride alone; cited from earlier work.
Series [3] deals with Alzheimer-type dementia patients.
Procedure: Patient. […] After 11 months from the start of the donepezil hydrochloride administration, concomitant administration of sustained release tablets of sodium valproate (twice a day after breakfast and dinner with 200 mg tablet×2) was started.
Patient. […] After 35 months from the start of the donepezil hydrochloride administration, concomitant administration of sustained release tablets of sodium valproate (twice a day after breakfast and dinner with 200 mg tablet×2) was started.
Patient. […] Concomitant administration of sustained release tablets of sodium valproate (twice a day after breakfast and dinner with 200 mg tablet×2) was started 48 months after the start of the donepezil hydrochloride administration. […] Sustained release tablets of sodium valproate (200 mg tablet×3) were administered from eight months after the start of the concomitant administration.

For the compound `CCCC(CCC)C(=O)O` [valproic acid], the Side reactions result in series [1] (general statement on valproic acid and a salt thereof) is on record as “little side reactions such as sleepiness”. For the same compound, the “Improving effect on the behavioral and psychological symptoms such as agitation” value in series [1] is reported as “does not exhibit any improving effect”.
`COc1cc2c(cc1OC)C(=O)C(CC1CCN(Cc3ccccc3)CC1)C2` (stereo not drawn) [donepezil hydrochloride]: the “Duration of improving action against the cognitive symptoms” value in series [2] is on record as “about one year at the longest”. Further, in series [2], the “Effect on the cognitive symptoms” value is “certain effects for retarding onset or relieving of the cognitive symptoms”. Further, the Problem behaviors result in series [3] (Example 1 patient, donepezil alone 5 mg once a day, two months from start) is recorded as “did not subside”. Further, the Symptoms observed entry in series [3] (Example 2 patient, donepezil alone 5 mg once a day, two months after start) was “symptoms of incontinentia and the like were observed”; in series [3] (Example 2 patient, donepezil alone, four months after start) it was “visual hallucination, incontinentia, aggressive attitude and the like were observed”; in series [3] (Example 3 patient, donepezil alone 5 mg once a day, 15 months after start) it was “dressing apraxia was observed”; in series [3] (Example 3 patient, donepezil alone, 23 months after start), “visual hallucination, soliloquy, emotional attitude, dressing apraxia, and stereotypy were observed”; in series [3] (Example 3 patient, donepezil alone, 25 months after start) it was “visual hallucination, delusion of persecution and the like”; in series [3] (Example 4 patient, donepezil alone 5 mg once a day, two months after start), “visual hallucination was not observed, but they spoke only their events in the old days and showed stereotypy”. In series [3] (Example 5 patient, donepezil alone, 41 months after start), the Symptoms observed result is “refusal of oral administration of medicaments, soliloquy and dressing apraxia”. For the same compound, the Inspection findings entry in series [3] (Example 5 patient, donepezil alone 5 mg once a day, 24 months after start) is “atrophy of the hippocampus was marked”. Further, in series [3] (Example 5 patient, donepezil alone, thirty nine months after start), the Cognitive disorder result was “advanced”.
Turning to `CCCC(CCC)C(=O)[O-].[Na+]` [sodium valproate], the “Improving effect on the behavioral and psychological symptoms such as agitation” value in series [1] is “no improving effect”.
